Test results as given in the CheMixHub viscosity set.

Assay: xn = mol fraction of the nth substance listed

NCCC(=O)O + O
viscosity [mPa·s], 100 kPa
Settings | x1 = 0.000358 | x1 = 0.000542 | x1 = 0.00072 | x1 = 0.000808 | x1 = 0.00108 | x1 = 0.00126 | x1 = 0.00144 | x1 = 0.0018
293.15 K | 1.006 | 1.008 | 1.009 | 1.011 | 1.014 | 1.016 | 1.018 | 1.022
298.15 K | 0.894 | 0.894 | 0.896 | 0.898 | 0.901 | 0.902 | 0.905 | 0.908
303.15 K | 0.8 | 0.8 | 0.802 | 0.804 | 0.805 | 0.807 | 0.809 | 0.812
308.15 K | 0.721 | 0.721 | 0.723 | 0.725 | 0.725 | 0.728 | 0.729 | 0.732
313.15 K | 0.653 | 0.653 | 0.655 | 0.657 | 0.657 | 0.659 | 0.66 | 0.663

O=C(O)C(Cl)(Cl)Cl + C[N+](C)(C)CCO.[Cl-]
101 kPa, x2 = 0.333
Settings | viscosity [mPa·s]
293.15 K | 645.9
298.15 K | 435
303.15 K | 302.5
308.15 K | 216.1
313.15 K | 158.7
318.15 K | 119.2
323.15 K | 91.41

O=C(O)C(Cl)(Cl)Cl + CC(C)=O
viscosity [mPa·s], 101 kPa
Settings | 298.15 K | 308.15 K | 318.15 K
x1 = 0.0484 | 0.368 | – | –
x1 = 0.1316 | 0.4855 | – | –
x1 = 0.165 | – | 0.5039 | 0.453
x1 = 0.2517 | – | 0.6893 | 0.6078
x1 = 0.2543 | 0.8156 | – | –
x1 = 0.3485 | – | 1.01 | 0.8833
x1 = 0.3826 | 1.433 | – | –
x1 = 0.4411 | – | 1.508 | 1.273
x1 = 0.5048 | 2.571 | – | –
x1 = 0.5537 | – | 2.424 | 1.967
x1 = 0.5971 | 3.829 | – | –
x1 = 0.6808 | – | 3.725 | 2.922
x1 = 0.7175 | 5.808 | – | –
x1 = 0.7475 | – | 4.527 | 3.504
x1 = 0.8521 | – | 5.855 | 4.441
x1 = 0.9183 | – | – | 5.024

O=C(O)C(Cl)(Cl)Cl + CCOC(=O)c1ccccc1
298.15 K, 101 kPa
Settings | viscosity [mPa·s]
x1 = 0.08874 | 2.324
x1 = 0.2096 | 2.93
x1 = 0.3125 | 3.711
x1 = 0.3982 | 4.61
x1 = 0.4907 | 5.848
x1 = 0.5795 | 7.068
x1 = 0.6758 | 8.374

[I-].[K+] + [2H]O[2H]
viscosity [mPa·s], 101 kPa
Settings | x1 = 0.011 | x1 = 0.021 | x1 = 0.036 | x1 = 0.053 | x1 = 0.076 | x1 = 0.121
298.15 K | 1.036 | 0.97 | 0.942 | 0.936 | 0.972 | 1.098
308.15 K | 0.829 | 0.794 | 0.776 | 0.783 | 0.823 | 0.942
318.15 K | 0.692 | 0.667 | 0.662 | 0.68 | 0.715 | 0.827
